From publication PMC3992122 (Molecular cancer therapeutics, 2012)

What was measured:
[1] = test system: GIST after imatinib, sunitinib and nilotinib therapy; details: fourth-line, 400 mg twice daily, cited from earlier work
GIST patients = GIST patients treated with sorafenib; cited from earlier work
[2] = biological target: GIST48 cells (KIT V560D + D820A) (Homo sapiens, UniProt P10721, D820A/V560D); details: doses as low as 100 nmol/L
[3] = test system: imatinib- or imatinib/sunitinib-resistant GIST; details: sorafenib 400 mg twice daily, cited from earlier work
drug-resistant GIST = details: third-line treatment, cited from earlier work
[4] = test system: imatinib- and sunitinib-resistant GISTs; details: phase II study; cited from earlier work
imatinib-resistant GIST = details: second-line setting; cited from earlier work

Sequence of GIST48 cells (KIT V560D + D820A) (P10721 26-976 V560D/D820A): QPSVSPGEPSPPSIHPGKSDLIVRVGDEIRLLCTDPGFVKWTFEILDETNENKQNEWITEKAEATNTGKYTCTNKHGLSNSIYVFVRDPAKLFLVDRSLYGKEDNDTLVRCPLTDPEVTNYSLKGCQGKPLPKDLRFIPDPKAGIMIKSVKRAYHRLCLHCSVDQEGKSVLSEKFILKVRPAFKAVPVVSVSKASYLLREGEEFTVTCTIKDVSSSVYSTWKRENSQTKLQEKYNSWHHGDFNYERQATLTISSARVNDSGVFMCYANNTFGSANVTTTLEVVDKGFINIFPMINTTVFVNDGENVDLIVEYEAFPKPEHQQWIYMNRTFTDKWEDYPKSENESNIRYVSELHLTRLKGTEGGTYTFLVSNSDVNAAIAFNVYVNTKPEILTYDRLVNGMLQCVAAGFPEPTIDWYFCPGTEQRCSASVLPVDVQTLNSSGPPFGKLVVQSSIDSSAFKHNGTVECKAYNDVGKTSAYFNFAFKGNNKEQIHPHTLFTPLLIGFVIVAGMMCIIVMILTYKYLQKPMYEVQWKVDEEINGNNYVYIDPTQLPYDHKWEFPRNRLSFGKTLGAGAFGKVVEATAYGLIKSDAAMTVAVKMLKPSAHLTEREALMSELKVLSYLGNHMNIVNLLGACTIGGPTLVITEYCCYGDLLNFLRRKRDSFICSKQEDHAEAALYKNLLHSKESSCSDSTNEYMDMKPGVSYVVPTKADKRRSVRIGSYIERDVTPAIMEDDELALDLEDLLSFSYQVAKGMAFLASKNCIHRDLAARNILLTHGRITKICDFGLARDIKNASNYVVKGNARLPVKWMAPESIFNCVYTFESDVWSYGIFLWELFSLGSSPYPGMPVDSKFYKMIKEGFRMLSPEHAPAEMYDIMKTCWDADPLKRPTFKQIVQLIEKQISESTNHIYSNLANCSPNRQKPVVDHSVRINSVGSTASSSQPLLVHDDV

**Q.** What does the source list for CNC(=O)c1cc(Oc2ccc(NC(=O)Nc3ccc(Cl)c(C(F)(F)F)c3)cc2)ccn1 [Sorafenib]?
**A.** overall tumor control rate ([1]; 32 patients): 63%; median PFS [1]: 4.6 months; grade 3-4 anemia (GIST patients): 7%; grade 3-4 elevated liver enzymes or bilirubin (GIST patients): 7%; grade 3-4 fatigue (GIST patients): 5%; grade 3-4 hand-foot skin reaction (GIST patients): 16%; grade 3-4 hypertension (GIST patients): 5%; inhibition of KIT phosphorylation [2]: 85%; disease control rate ([3]; 38 patients): 68%; hand-foot syndrome (grade 3-4 toxicity) [3]: 45%; median OS [3]: 11.6 months; patients requiring at least one dose reduction [3]: 63%; rate of grade 3-4 toxicity [3]: greater than 50%; median OS (drug-resistant GIST; median follow-up of 7.5 months): had not been reached; median PFS (drug-resistant GIST): 4.6 months; overall disease control rate (drug-resistant GIST): 65%

**Q.** With CNC(=O)c1cc(Oc2ccc(NC(=O)Nc3ccc(Cl)c(C(F)(F)F)c3)c(F)c2)ccn1 [Regorafenib] as the compound, how does the clinical benefit rate [4] read?
**A.** 55%

**Q.** What about the “median PFS” value [4] of the same compound?
**A.** 10 months

**Q.** Which disease control rate (imatinib-resistant GIST) does the source give for CCN(CC)CCNC(=O)c1c(C)[nH]c(/C=C2\C(=O)Nc3ccc(F)cc32)c1C [Sunitinib] here?
**A.** 65%

**Q.** And the “median OS” value (imatinib-resistant GIST)?
**A.** 17.2 months
